Reference: patent US6420558B1, “Aminopiperidine derivates as integrin αvβ3 antagonists” (Meiji Seika Kaisha, Ltd., priority 1998, dated 2002)

Legend:
[1] = target: T1, integrin αvβ3 (vitronectin receptor purified from the human placenta) (Homo sapiens, UniProt P05106+P06756); experiment: αvβ3 binding assay (vitronectin-vitronectin receptor binding assay); details: vitronectin binding to human placenta vitronectin receptor; read-out: integrin αvβ3 antagonistic activity, IC50 value
T1 construct: a vitronectin receptor (protein content: 118 μg/ml) purified from the human placenta; from tissue; host or cells: human placenta

[2] = Acute toxicity test in mice; format: in vivo; details: intravenously administered to three mice at a dose of 50 mg/kg
Description: The compound of Example 52 was intravenously administered to three mice at a dose of 50 mg/kg.

T1 sequence (P06756 31-889 limits assumed): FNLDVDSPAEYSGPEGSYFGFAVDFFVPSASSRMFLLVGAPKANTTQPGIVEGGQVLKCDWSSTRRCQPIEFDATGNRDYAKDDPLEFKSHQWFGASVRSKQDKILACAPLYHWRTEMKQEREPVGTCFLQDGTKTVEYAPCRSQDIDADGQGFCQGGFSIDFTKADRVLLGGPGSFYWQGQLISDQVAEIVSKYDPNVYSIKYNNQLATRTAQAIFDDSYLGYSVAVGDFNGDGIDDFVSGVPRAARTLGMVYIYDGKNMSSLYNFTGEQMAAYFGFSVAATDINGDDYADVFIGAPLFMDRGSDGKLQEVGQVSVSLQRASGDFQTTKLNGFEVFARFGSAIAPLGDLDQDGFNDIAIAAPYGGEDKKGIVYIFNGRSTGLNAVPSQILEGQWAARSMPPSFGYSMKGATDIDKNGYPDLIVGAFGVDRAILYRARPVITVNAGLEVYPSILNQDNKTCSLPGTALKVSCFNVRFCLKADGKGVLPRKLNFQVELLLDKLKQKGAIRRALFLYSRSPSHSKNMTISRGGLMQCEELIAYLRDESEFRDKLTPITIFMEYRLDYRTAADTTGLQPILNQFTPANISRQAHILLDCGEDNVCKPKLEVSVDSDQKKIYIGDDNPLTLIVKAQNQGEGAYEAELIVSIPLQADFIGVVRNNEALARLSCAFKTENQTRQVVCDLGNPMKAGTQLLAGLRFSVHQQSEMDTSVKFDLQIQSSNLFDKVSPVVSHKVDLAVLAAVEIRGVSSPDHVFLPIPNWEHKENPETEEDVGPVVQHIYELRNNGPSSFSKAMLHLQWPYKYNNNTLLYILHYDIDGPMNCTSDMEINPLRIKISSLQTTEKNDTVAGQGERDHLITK
T1 sequence (P06756 891-1048 limits assumed): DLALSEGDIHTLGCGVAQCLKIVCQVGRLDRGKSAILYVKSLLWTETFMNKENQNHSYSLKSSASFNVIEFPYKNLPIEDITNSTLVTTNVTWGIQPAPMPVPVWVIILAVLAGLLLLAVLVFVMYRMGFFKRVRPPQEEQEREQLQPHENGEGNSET
T1 sequence (P05106 27-788): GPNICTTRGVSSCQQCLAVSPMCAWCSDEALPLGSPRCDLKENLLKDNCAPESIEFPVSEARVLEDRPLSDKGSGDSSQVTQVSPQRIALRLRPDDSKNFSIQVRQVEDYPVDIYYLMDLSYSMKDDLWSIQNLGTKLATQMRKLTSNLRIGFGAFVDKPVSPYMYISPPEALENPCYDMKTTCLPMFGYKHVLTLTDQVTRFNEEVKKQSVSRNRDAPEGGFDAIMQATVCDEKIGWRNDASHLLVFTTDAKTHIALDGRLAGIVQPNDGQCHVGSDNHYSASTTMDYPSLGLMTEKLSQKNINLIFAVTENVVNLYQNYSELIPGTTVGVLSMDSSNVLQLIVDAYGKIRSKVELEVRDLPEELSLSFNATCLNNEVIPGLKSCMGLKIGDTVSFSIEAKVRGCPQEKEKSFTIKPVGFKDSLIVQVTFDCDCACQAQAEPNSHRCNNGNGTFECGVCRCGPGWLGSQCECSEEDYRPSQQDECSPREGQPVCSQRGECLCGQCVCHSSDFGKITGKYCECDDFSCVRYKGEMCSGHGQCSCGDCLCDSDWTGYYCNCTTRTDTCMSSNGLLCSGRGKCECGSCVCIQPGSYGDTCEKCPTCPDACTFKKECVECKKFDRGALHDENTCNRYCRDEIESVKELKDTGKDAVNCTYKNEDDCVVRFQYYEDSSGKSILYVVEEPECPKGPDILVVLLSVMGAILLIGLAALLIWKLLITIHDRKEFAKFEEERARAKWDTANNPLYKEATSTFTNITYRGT

O=C(NC[C@H](NS(=O)(=O)c1ccccc1)C(=O)O)c1ccc(N2CCC(NC3=NCCCN3)CC2)c(F)c1 [Example 52, (2S)-Benzenesulfonylamino-3-[3-fluoro-4-{4-(1,4,5,6-tetrahydropyrimidin-2-ylamino)piperidin-1-yl}-benzoylamino]propionic acid]
IC50 [1]: ≤ 1 nM | survival in acute toxicity test [2]: all the mice survived | change in weight in acute toxicity test ([2]; compared with solvent group): the same as a group of mice to which only a solvent had been administrered
